# According to patent US20110190227A1, “Antagonists of Prostaglandin D2 Receptors” (Amira Pharmaceuticals, Inc., priority 2008, published 2011):
# What was measured:
# [1] = target: T1, human DP1 receptor (Homo sapiens, UniProt Q13258); test: DP1 radioligand membrane binding assay ([3H]BWA868C); conditions: human platelet membranes, 2 nM [3H]BWA868C; read-out: hDP1
# T1 construct: tissue Biological Specialty Corporation; host or cells: human platelets, membrane preparation
# T1 sequence (Q13258 1-359): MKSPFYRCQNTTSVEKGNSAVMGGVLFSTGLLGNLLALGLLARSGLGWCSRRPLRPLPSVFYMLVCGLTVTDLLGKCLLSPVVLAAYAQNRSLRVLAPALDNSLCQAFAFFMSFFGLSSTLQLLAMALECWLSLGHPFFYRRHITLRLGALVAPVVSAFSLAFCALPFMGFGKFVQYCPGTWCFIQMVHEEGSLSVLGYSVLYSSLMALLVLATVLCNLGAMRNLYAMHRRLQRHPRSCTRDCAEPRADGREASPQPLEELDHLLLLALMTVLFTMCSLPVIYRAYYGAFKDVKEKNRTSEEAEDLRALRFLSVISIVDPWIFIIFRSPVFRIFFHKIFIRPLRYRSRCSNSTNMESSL
# Protocol: The ability of a compound to bind to the human DP1 receptor was evaluated via a radioligand membrane binding assay using the DP1 selective synthetic ligand [^3H]BWA868C. Packed human platelets (Biological Specialty Corporation), were resuspended in 6 volumes of Hepes/HBSS buffer (10 mM Hepes, 1 mM DTT in Hanks Balanced Salt Solution (HBSS), lysed and centrifuged at 75,000×g to pellet the membranes. Membranes were resuspended in Hepes/HBSS buffer to approximately 12 mg protein/ml. Membranes (20 μg protein/well) are incubated in 96-well plates with 2 nM [^3H]BWA868C and test compound in Assay Buffer (50 mM Hepes, 10 mM MnCl2, 1 mM EDTA, plus or minus 0.2% human serum albumin, pH 7.4) for 60 minutes at room temperature. The reactions are terminated by rapid filtration through Whatman GF/C glass fibre filter plates. The filter plates were pre-soaked in 0.33% polyethylenimine for 30 minutes at room temperature then washed in Wash Buffer (50 mM Hepes, 0.5 M NaCl pH 7.4) prior to harvesting. After harvesting, the filter plates are washed 3 times with 1 ml cold Wash Buffer then dried. Scintillant is then added to the plates and the radioactivity retained on the filters is determined on a Packard TopCount (Perkin Elmer). Specific binding is determined as total radioactive binding minus non-specific binding in the presence of 10 μM BW A868C. IC50s were determined using GraphPad prism analysis of drug titration curves.
# [2] = target: T2, human DP2 receptor (Homo sapiens, UniProt Q9Y5Y4); test: DP2/CRTH2 radioligand binding assay ([3H]PGD2); conditions: membranes of HEK293 cells expressing recombinant human DP2, 1 nM [3H]PGD2; read-out: hDP2
# T2 construct: expressed in transfected cells
# T2 sequence (Q9Y5Y4 1-395): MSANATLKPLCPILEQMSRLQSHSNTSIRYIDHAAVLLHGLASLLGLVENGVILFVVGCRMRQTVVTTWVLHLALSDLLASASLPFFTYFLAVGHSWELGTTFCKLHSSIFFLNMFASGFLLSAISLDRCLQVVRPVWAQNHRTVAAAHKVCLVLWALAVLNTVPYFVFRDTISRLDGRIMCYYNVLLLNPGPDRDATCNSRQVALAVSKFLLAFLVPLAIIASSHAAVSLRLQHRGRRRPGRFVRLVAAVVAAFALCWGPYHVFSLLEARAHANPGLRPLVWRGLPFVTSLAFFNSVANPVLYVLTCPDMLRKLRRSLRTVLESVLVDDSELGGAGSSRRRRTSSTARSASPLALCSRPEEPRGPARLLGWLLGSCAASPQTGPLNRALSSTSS
# Protocol: The ability of a compound to bind to the human DP2 receptor is assessed via a radioligand binding assay using [^3H]PGD2. HEK293 cells stably expressing recombinant human DP2 are resuspended in 10 mM Hepes, 7.4 containing 1 mM DTT, lysed and centrifuged at 75,000×g to pellet the membranes. The membranes are resuspended in 10 mM Hepes, 7.4 containing 1 mM DTF and 10% glycerol to approximately 5 mg protein/ml. Membranes (2-10 […]) are incubated in 96-well plates with 1 nM [^3H]PGD2 and test compound in Assay Buffer (50 mM Hepes, 10 mM MnCl2, 1 mM EDTA, plus or minus 0.2% human serum albumin, pH 7.4) for 60 minutes at room temperature. The reactions are terminated by rapid filtration through Whatman GF/C glass fibre filter plates. The filter plates were pre-soaked in 0.33% polythylenimine for 30 minutes at room temperature then washed in Wash Buffer (50 mM Hepes, 0.5 M NaCl pH 7.4) prior to harvesting. After harvesting, the filter plates are washed 3 times with 1 ml cold Wash Buffer then dried. Scintillant is then added to the plates and the radioactivity retained on the filters is determined on a Packard TopCount (Perkin Elmer). Specific binding is determined as total radioactive binding minus non-specific binding in the presence of 10 μM PGD2. IC50s were determined using GraphPad prism analysis of drug titration curves.
Structure (SMILES),IC50 [1] [nM],IC50 [2] [nM]
"O=C(O)Cc1cccc(Oc2ccc(Br)cc2CS(=O)(=O)c2ccccc2)c1 [Compound 1-20, [3-(2-Benzenesulfonylmethyl-4-bromo-phenoxy)-phenyl]-acetic acid]",> 1000,< 300
"O=C(O)Cc1cccc(Oc2ccc(Br)cc2CS(=O)(=O)Cc2ccccc2)c1 [Compound 1-21, [3-(4-Bromo-2-phenylmethanesulfonylmethyl-phenoxy)-phenyl]-acetic acid]",300 to 1000,< 300
"O=C(O)Cc1cccc(Oc2ccc(Br)cc2CS(=O)(=O)CCc2ccccc2)c1 [Compound 1-22, {3-[4-Bromo-2-(2-phenyl-ethanesulfonylmethyl)-phenoxy]-phenyl}-acetic acid]",> 1000,< 300
"O=C(O)Cc1cccc(Oc2ccc(Br)cc2CS(=O)(=O)c2ccccn2)c1 [Compound 1-23, {3-[4-Bromo-2-(pyridine-2-sulfonylmethyl)-phenoxy]-phenyl}-acetic acid]",> 1000,300 to 1000
"O=C(O)Cc1cccc(Oc2ccc(Br)cc2CS(=O)(=O)c2ccc3ccccc3n2)c1 [Compound 1-24, {3-[4-Bromo-2-(quinoline-2-sulfonylmethyl)-phenoxy]-phenyl}-acetic acid]",> 1000,> 1000
"O=C(O)Cc1cccc(Oc2ccc(Br)cc2CS(=O)(=O)c2nccs2)c1 [Compound 1-25, {3-[4-Bromo-2-(thiazole-2-sulfonylmethyl)-phenoxy]-phenyl}-acetic acid]",> 1000,300 to 1000
"CN(C)CCS(=O)(=O)Cc1cc(Br)ccc1Oc1cccc(CC(=O)O)c1 [Compound 1-27, {3-[4-Bromo-2-(2-dimethylamino-ethanesulfonylmethyl)-phenoxy]-phenyl}-acetic acid]",> 1000,< 300
"O=C(O)Cc1cccc(Oc2ccc(Br)cc2COc2ccccc2)c1 [Compound 1-37, [3-(4-Bromo-2-phenoxymethyl-phenoxy)-phenyl]-acetic acid]",300 to 1000,> 1000
"COc1ccc(CC(=O)O)cc1Oc1ccc(Cl)cc1CSCc1ccccc1 [Compound 1-54, [3-(2-Benzylsulfanylmethyl-4-chloro-phenoxy)-4-methoxy-phenyl]-acetic acid]",300 to 1000,< 300
"COc1ccc(CC(=O)O)cc1Oc1ccc(Cl)cc1C[S+]([O-])Cc1ccccc1 (stereo not shown) [Compound 1-55, [3-(4-Chloro-2-phenylmethanesulfinylmethyl-phenoxy)-4-methoxyphenyl]-acetic acid]",> 1000,300 to 1000
"COc1ccc(CC(=O)O)cc1Oc1ccc(Cl)cc1CS(=O)(=O)Cc1ccccc1 [Compound 1-56, [3-(4-Chloro-2-phenylmethanesulfonylmethyl-phenoxy)-4-methoxy-phenyl]-acetic acid]",> 1000,< 300
"Cn1cc(-c2ccc(Oc3cccc(CC(=O)O)c3)c(CSc3ccccc3)c2)cn1 [Compound 1-57, {3-[4-(1-Methyl-1H-pyrazol-4-yl)-2-phenylsulfanylmethyl-phenoxy]-phenyl}-acetic acid]",> 1000,300 to 1000
"CS(=O)(=O)c1ccc(-c2ccc(Oc3cccc(CC(=O)O)c3)c(CSc3ccccc3)c2)cc1 [Compound 1-58, [3-(4′-Methanesulfonyl-3-phenylsulfanylmethyl-biphenyl-4-yloxy)-phenyl]-acetic acid]",< 300,300 to 1000

# Now from value to molecule:
IC50 [1] [nM],IC50 [2] [nM],Structure (SMILES)
> 1000,< 300,"Cc1nnc(S(=O)(=O)Cc2cc(Br)ccc2Oc2cccc(CC(=O)O)c2)s1 [Compound 1-26, {3-[4-Bromo-2-(5-methyl-[1,3,4]thiadiazole-2-sulfonylmethyl)-phenoxy]-phenyl}-acetic acid]"
> 1000,< 300,"O=C(O)Cc1cccc(Oc2ccc(Br)cc2C[S+]([O-])c2ccccc2)c1 (stereo not shown) [Compound 1-28, [3-(2-Benzenesulfinylmethyl-4-bromo-phenoxy)-phenyl]-acetic acid]"
> 1000,< 300,"O=C(O)Cc1cccc(Oc2ccc(Br)cc2C[S+]([O-])Cc2ccccc2)c1 (stereo not shown) [Compound 1-29, [3-(4-Bromo-2-phenylmethanesulfinylmethyl-phenoxy)-phenyl]-acetic acid]"
> 1000,< 300,"O=C(O)Cc1cccc(Oc2ccc(Br)cc2C[S+]([O-])CCc2ccccc2)c1 (stereo not shown) [Compound 1-30, {3-[4-Bromo-2-(2-phenyl-ethanesulfinylmethyl)-phenoxy]-phenyl}-acetic acid]"
> 1000,> 1000,"O=C(O)Cc1cccc(Oc2ccc(Br)cc2C[S+]([O-])c2ccccn2)c1 (stereo not shown) [Compound 1-31, {3-[4-Bromo-2-(pyridine-2-sulfinylmethyl)-phenoxy]-phenyl}-acetic acid]"
> 1000,< 300,"O=C(O)Cc1cccc(Oc2ccc(Br)cc2C[S+]([O-])c2ccc3ccccc3n2)c1 (stereo not shown) [Compound 1-32, {3-[4-Bromo-2-(quinoline-2-sulfinylmethyl)-phenoxy]-phenyl}-acetic acid]"
> 1000,< 300,"O=C(O)Cc1cccc(Oc2ccc(Br)cc2C[S+]([O-])c2nccs2)c1 (stereo not shown) [Compound 1-33, {3-[4-Bromo-2-(thiazole-2-sulfinylmethyl)-phenoxy]-phenyl}-acetic acid]"
> 1000,< 300,"Cc1nnc([S+]([O-])Cc2cc(Br)ccc2Oc2cccc(CC(=O)O)c2)s1 (stereo not shown) [Compound 1-34, {3-[4-Bromo-2-(5-methyl-[1,3,4]thiadiazole-2-sulfinylmethyl)-phenoxy]-phenyl}-acetic acid]"
> 1000,> 1000,"CN(C)CC[S+]([O-])Cc1cc(Br)ccc1Oc1cccc(CC(=O)O)c1 (stereo not shown) [Compound 1-35, {3-[4-Bromo-2-(2-dimethylamino-ethanesulfinylmethyl)-phenoxy]-phenyl}-acetic acid]"
> 1000,> 1000,"O=C(O)Cc1cccc(Oc2ccc(Br)cc2C[S+]([O-])CC(=O)O)c1 (stereo not shown) [Compound 1-36, [3-(4-Bromo-2-carboxymethanesulfinylmethyl-phenoxy)-phenyl]-acetic acid]"
